The results in this text go back to patent US5945450A, “Naphthalene derivative” (Teijin Limited, priority 1994, dated 1999).

Like-named read-outs stand apart in the source and are kept apart here.

The assay deals with mast cells of the rat. Briefly: Inhibition of histamine release from rat mast cells. It is filed as cell-based, rat (SD strain). Conditions: Mast cell, read-out: Inhibiton of histamine release (%). How it is done: A 1 ml of anti-DNP-Ascaris (Didets) anti-serum (prepared as described in J. Immunol., 106:1002, 1971) was injected into the peritoneal cavity of 5 SD strain rats of 7 weeks old. Forty eight hours later, the animals were bled to death, and 20 ml of HBSS (Hanks balanced salt solution) was injected into their peritoneal cavity. After about 90 second massaging, the HBSS washing was recovered, and cells released into the peritoneal cavity were collected from the washing. The ascitic cells thus collected were washed once with 0.1% BSA/Tyrode-HEPES, and then resuspended in 0.1% BSA/Tyrode-HEPES to give a suspension with a density of 5×10^6 cells/ml. The cell suspension was incubated at 37° C. for 10 minutes in the presence/absence of a test substance, that is, the compound listed in Table 6.
To the resulting mixture was added a histamine releasing agent (20 μg/ml of DNP-Ascaris (DNP-As) (Didets)+25 μg/ml of phosphatidylserine (PS) or 0.2 μg/ml of calcium ionophore A23187), and the reaction was allowed to proceed at 37° C. for 20 minutes. Then, the cell suspension was centrifuged to obtain supernatant. Histamine released in the supernatant was determined by the fluorescent method (J. Pharmacol. Exp. Ther. 127:182, 1959). Inhibitory effect (%) of a given compound of this invention on histamine release was calculated relative to the histamine release when the compound was not coexistent.

The mark [1] stands for this setting: releasing agent DNP-As + PS, 10 μM.
Setting [2] is: releasing agent DNP-As + PS, 100 μM.
Where [3] appears, read: releasing agent calcium ionophore A23187, 10 μM.
Where [4] appears, read: releasing agent calcium ionophore A23187, 100 μM.

`O=C(Nc1ccccc1C(=O)O)c1ccc(Oc2ccc3ccccc3c2)cc1` [Compound No. 1104, 2-(4-(2-naphtyloxy)benzamide)benzoic Acid]: the inhibition at 10 µM runs as follows: under setting [1], 42.7%; under setting [3], 75.4%. For the same compound, the inhibition at 100 µM under setting [2] came out at 84.2% and the inhibition at 100 µM under setting [4] worked out at 78%.
Consider `O=C(Cc1ccc(Oc2ccc3ccccc3c2)cc1)Nc1ccccc1C(=O)O` [Compound No. 1126, 2-(4-(2-naphtyloxy)phenylacetamide)benzoic acid], for which the inhibition at 10 µM under setting [1] came to 25.4% and the inhibition at 10 µM under setting [3] was 54.2%. Also, the inhibition at 100 µM under setting [2] came to 90.2% and the inhibition at 100 µM under setting [4] turned out to be 79.8%.
